The results in this text go back to patent US12521390B2, “Dosage forms for Tyk2 inhibitors” (Bristol-Myers Squibb Company, priority 2019, dated 2026).

Each structure is given as a SMILES string.

Data set [1] in a line: Solubility of BMS-986165 crystalline free base as a function of pH. Format: physicochemical. Conditions: pHs>4.
Data set [2] in a line: Chemical stability (related substances) of BMS-986165:HPMCAS-H SDDs on storage. Format: physicochemical. The following applies: API standard, no storage condition. Here is the method:
Lots of 25% w/w BMS-986165 SDD with HPMCAS-H were assessed for physical and chemical stability. […] Dissolution performance in the microcentrifuge test was unchanged.
There was no evidence of crystallization by PXRD in any SDD after storage for up to 6 months at 40° C./75% RH open (FIG. 1A and FIG. 1B). DSC data indicated slight changes similar to those observed in 25% w/w BMS-986165 SDD after exposure to 50° C./75% RH or 40° C./75% RH but there was no trend with API loading and the results were considered to reflect an “ageing” or “annealing” effect rather than crystal formation. Scanning electron microscopy (SEM) images confirmed the presence of a single phase homogenous dispersion (FIG. 2A-C, FIG. 3A-C, FIG. 4A-C).

Turning to `[2H]C([2H])([2H])NC(=O)c1nnc(NC(=O)C2CC2)cc1Nc1cccc(-c2ncn(C)n2)c1OC` [BMS-986165 crystalline free base, 6-(cyclopropaneamido)-4-((2-methoxy-3-(1-methyl-1H-1,2,4-triazol-3-yl)phenyl)amino)-N-(methyl-d3)pyridazine-3-carboxamide], in data set [1], the solubility result is listed as “low”.
Consider `[2H]C([2H])([2H])NC(=O)c1nnc(NC(=O)C2CC2)cc1Nc1cccc(-c2ncn(C)n2)c1OC` [BMS-986165, 6-(cyclopropaneamido)-4-((2-methoxy-3-(1-methyl-1H-1,2,4-triazol-3-yl)phenyl)amino)-N-(methyl-d3)pyridazine-3-carboxamide], for which, in data set [2], the “BMS-986165 (related substances, relative ret. time 1.00)” value was 99.48 and the Total impurities >LOQ was 0.52%.
